These are literature values, as cited in paper PMC2803440 (Current Chemical Genomics, 2008).

This data set addresses recombinant variant of PON1.

`Oc1ccc2ccccc2n1` [Compound 2HQ, 2-hydroxyquinoline]: the Ki (as a rule, the equilibrium dissociation constant of an inhibitor or competing ligand from its target) is 3000 nM.
